pIC50: −log10 of the molar value.
Tests used:
JAK2 = target: T1, JAK2 (Homo sapiens, UniProt O60674); assay: Kinobeads assay, JAK2; assay type: binding; conditions: mixed Molt4/Ramos lysate, read-out: Inhibition values (IC50) JAK2
T1 construct: endogenous in cells; host or cells: mixed Molt4/Ramos lysate (1:2)
Outline: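 Competition binding in mixed Molt4/Ramos cell lysate (1:2, 10 mg/mL protein) with Kinobeads carrying immobilized aminopyrido-pyrimidine ligand, 3 h in cold room; 9-step 1:3 compound dilution series from 5 mM DMSO stock. Bead-bound JAK2/JAK3 eluted and quantified by antibody dot blot with infrared detection; IC50 from dose-response curves.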

Aurora A = target: T2, Aurora A (Homo sapiens, UniProt O14965); assay: Kinobeads assay, Aurora A; assay type: binding; conditions: for pIC50: lysate of pervanadate-treated Jurkat cells, read-out: Inhibition values (IC50) Aur A
T2 construct: cell lysates from Jurkat cells (ATCC TIB-152) used; endogenous in cells; host or cells: Jurkat cells (ATCC TIB-152), treated with pervanadate
T2 sequence (O14965 1-403): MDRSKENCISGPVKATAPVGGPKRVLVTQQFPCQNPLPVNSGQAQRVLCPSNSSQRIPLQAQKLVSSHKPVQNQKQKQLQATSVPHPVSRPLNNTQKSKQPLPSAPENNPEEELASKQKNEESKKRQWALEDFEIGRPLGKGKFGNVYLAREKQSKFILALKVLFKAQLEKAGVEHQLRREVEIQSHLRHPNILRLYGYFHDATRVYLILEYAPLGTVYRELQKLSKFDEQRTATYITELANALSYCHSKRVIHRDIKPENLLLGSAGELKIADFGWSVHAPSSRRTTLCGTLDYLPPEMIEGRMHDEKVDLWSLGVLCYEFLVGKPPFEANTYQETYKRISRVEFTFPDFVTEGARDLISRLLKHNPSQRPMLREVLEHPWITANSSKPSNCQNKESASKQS

T1 sequence (O60674 whole entry): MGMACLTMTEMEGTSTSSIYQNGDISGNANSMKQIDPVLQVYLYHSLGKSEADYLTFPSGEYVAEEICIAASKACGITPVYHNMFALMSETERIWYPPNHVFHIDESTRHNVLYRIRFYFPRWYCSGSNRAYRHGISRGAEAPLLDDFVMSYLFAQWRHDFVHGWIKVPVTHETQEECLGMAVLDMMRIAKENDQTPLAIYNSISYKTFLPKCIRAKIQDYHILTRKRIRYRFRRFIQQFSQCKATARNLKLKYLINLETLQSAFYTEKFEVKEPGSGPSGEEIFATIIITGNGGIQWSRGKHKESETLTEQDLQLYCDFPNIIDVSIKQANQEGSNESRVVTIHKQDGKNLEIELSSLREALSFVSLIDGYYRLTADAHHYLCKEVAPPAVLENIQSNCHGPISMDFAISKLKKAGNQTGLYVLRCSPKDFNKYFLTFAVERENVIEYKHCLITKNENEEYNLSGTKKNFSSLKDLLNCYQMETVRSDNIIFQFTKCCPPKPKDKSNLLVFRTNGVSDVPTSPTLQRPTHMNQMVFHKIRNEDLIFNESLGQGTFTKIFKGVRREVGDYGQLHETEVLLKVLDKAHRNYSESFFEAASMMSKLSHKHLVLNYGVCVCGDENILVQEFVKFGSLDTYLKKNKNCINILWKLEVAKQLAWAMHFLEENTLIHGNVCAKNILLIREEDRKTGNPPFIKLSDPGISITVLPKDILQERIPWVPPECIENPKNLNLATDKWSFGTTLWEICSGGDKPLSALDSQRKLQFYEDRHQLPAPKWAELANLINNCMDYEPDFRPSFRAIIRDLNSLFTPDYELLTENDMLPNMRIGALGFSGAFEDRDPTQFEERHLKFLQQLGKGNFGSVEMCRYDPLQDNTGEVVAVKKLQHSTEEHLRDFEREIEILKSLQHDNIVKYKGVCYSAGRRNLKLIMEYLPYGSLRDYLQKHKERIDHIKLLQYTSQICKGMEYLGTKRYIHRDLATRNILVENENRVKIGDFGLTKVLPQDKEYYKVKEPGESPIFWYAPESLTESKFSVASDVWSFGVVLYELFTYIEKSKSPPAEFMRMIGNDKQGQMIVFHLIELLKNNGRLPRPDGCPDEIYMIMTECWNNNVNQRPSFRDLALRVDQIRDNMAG

Row | SMILES | pIC50 (JAK2) | JAK3/AurA Fold Selectivity (Aurora A) | pIC50 (Aurora A)
1 | CN(C)CCCn1cc(Nc2ncc3cnn(Cc4c(F)c(F)cc(N5CCOCC5)c4F)c3n2)cn1 [Example 42, N-(1-(3-(Dimethylamino)propyl)-1H-pyrazol-4-yl)-1-(2,3,6-trifluoro-5-morpholinobenzyl)-1H-pyrazolo[3,4-d]pyrimidin-6-amine] | 5.00 to 6.00 | >50 Fold | 5.00 to 6.00
2 | CN(C)CCCn1cc(Nc2ncc3cnn(Cc4cccc(N5CCOCC5)c4F)c3n2)cn1 [Example 43, N-(1-(3-(Dimethylamino)propyl)-1H-pyrazol-4-yl)-1-(2-fluoro-3-morpholinobenzyl)-1H-pyrazolo[3,4-d]pyrimidin-6-amine] | 5.00 to 6.00 | >50 Fold | 5.00 to 6.00
3 | OCCn1cc(Nc2ncc3cnn(Cc4cc(N5CCOCC5)ccc4F)c3n2)cn1 [Example 44, 2-(4-((1-(2-Fluoro-5-morpholinobenzyl)-1H-pyrazolo[3,4-d]pyrimidin-6-yl)amino)-1H-pyrazol-1-yl)ethanol] | ≤ 5.00 | 10-50 Fold | 6.00 to 7.00
4 | OCCn1cc(Nc2ncc3cnn(Cc4c(F)c(F)cc(N5CCOCC5)c4F)c3n2)cn1 [Example 45, 2-(4-((1-(2,3,6-Trifluoro-5-morpholinobenzyl)-1H-pyrazolo[3,4-d]pyrimidin-6-yl)amino)-1H-pyrazol-1-yl)ethanol] | 5.00 to 6.00 | 10-50 Fold | 6.00 to 7.00
5 | O=C1COCCN1c1cccc(Cn2ncc3cnc(Nc4cnn(CCO)c4)nc32)c1F [Example 46, 4-(2-Fluoro-3-((6-((1-(2-hydroxyethyl)-1H-pyrazol-4-yl)amino)-1H-pyrazolo[3,4-d]pyrimidin-1-yl)methyl)phenyl)morpholin-3-one] | 5.00 to 6.00 | 10-50 Fold | 6.00 to 7.00
6 | OCCn1cc(Nc2ncc3cnn(Cc4cccc(N5CCNCC5)c4)c3n2)cn1 [Example 47, 2-(4-((1-(3-(piperazin-1-yl)benzyl)-1H-pyrazolo[3,4-d]pyrimidin-6-yl)amino)-1H-pyrazol-1-yl)ethanol] | 5.00 to 6.00 | 10-50 Fold | 6.00 to 7.00
7 | c1cc(Cn2ncc3cnc(Nc4cnn(CC5CCCNC5)c4)nc32)cc(N2CCOCC2)c1 (stereo not drawn) [Example 48, 1-(3-Morpholinobenzyl)-N-(1-(piperidin-3-ylmethyl)-1H-pyrazol-4-yl)-1H-pyrazolo[3,4-d]pyrimidin-6-amine] | 5.00 to 6.00 | >50 Fold | 5.00 to 6.00
8 | Cn1cc(Nc2ncc3cnn(Cc4cc(F)cc(N5CCOCC5)c4)c3n2)cn1 [Example 49, 1-(3-Fluoro-5-morpholinobenzyl)-N-(1-methyl-1H-pyrazol-4-yl)-1H-pyrazolo[3,4-d]pyrimidin-6-amine] | 5.00 to 6.00 | 10-50 Fold | 6.00 to 7.00
9 | CN(C)CCCn1cc(Nc2ncc3cnn(Cc4cccc(N5CCOCC5=O)c4F)c3n2)cn1 [Example 50, 4-(3-((6-((1-(3-(Dimethylamino)propyl)-1H-pyrazol-4-yl)amino)-1H-pyrazolo[3,4-d]pyrimidin-1-yl)methyl)-2-fluorophenyl)morpholin-3-one] | 5.00 to 6.00 | >50 Fold | 6.00 to 7.00
10 | OCCn1cc(Nc2ncc3cnn(Cc4cc(F)cc(N5CCOCC5)c4)c3n2)cn1 [Example 51, 2-(4-((1-(3-Fluoro-5-morpholinobenzyl)-1H-pyrazolo[3,4-d]pyrimidin-6-yl)amino)-1H-pyrazol-1-yl)ethanol] | 5.00 to 6.00 | 10-50 Fold | 6.00 to 7.00

Results, then the molecule that gave them:

Row | pIC50 (JAK2) | JAK3/AurA Fold Selectivity (Aurora A) | pIC50 (Aurora A) | SMILES
11 | 5.00 to 6.00 | >50 Fold | 6.00 to 7.00 | Cn1cc(Nc2ncc3cnn(Cc4cc(F)cc(N5CCOCC5=O)c4)c3n2)cn1 [Example 52, 4-(3-Fluoro-5-((6-((1-methyl-1H-pyrazol-4-yl)amino)-1H-pyrazolo[3,4-d]pyrimidin-1-yl)methyl)phenyl)morpholin-3-one]
12 | ≤ 5.00 | >50 Fold | 6.00 to 7.00 | Cn1cc(Nc2ncc3cnn(Cc4cc(N5CCOCC5=O)cc(F)c4F)c3n2)cn1 [Example 53, 4-(3,4-Difluoro-5-((6-((1-methyl-1H-pyrazol-4-yl)amino)-1H-pyrazolo[3,4-d]pyrimidin-1-yl)methyl)phenyl)morpholin-3-one]
13 | 5.00 to 6.00 | >50 Fold | 6.00 to 7.00 | Cn1cc(Nc2ncc3cnn(Cc4cccc(N5CCNCC5=O)c4F)c3n2)cn1 [Example 54, 1-(2-Fluoro-3-((6-((1-methyl-1H-pyrazol-4-yl)amino)-1H-pyrazolo[3,4-d]pyrimidin-1-yl)methyl)phenyl)piperazin-2-one]
14 | 5.00 to 6.00 | 10-50 Fold | 6.00 to 7.00 | O=C1CNCCN1c1cccc(Cn2ncc3cnc(Nc4cnn(CCO)c4)nc32)c1F [Example 55, 1-(2-Fluoro-3-((6-((1-(2-hydroxyethyl)-1H-pyrazol-4-yl)amino)-1H-pyrazolo[3,4-d]pyrimidin-1-yl)methyl)phenyl)piperazin-2-one]
15 | ≤ 5.00 | >50 Fold | 5.00 to 6.00 | OCCn1cc(Nc2ncc3cnn(Cc4cc(N5CCOCC5)cc(F)c4F)c3n2)cn1 [Example 56, 2-(4-((1-(2,3-Difluoro-5-morpholinobenzyl)-1H-pyrazolo[3,4-d]pyrimidin-6-yl)amino)-1H-pyrazol-1-yl)ethanol]
16 | ≤ 5.00 | 10-50 Fold | 6.00 to 7.00 | O=C1CNCCN1c1cccc(Cn2ncc3cnc(Nc4cnn(CCO)c4)nc32)c1 [Example 57, 1-(3-((6-((1-(2-Hydroxyethyl)-1H-pyrazol-4-yl)amino)-1H-pyrazolo[3,4-d]pyrimidin-1-yl)methyl)phenyl)piperazin-2-one]
17 | 5.00 to 6.00 | 10-50 Fold | 6.00 to 7.00 | O=C1COCCN1c1cc(F)cc(Cn2ncc3cnc(Nc4cnn(CCO)c4)nc32)c1 [Example 58, 4-(3-Fluoro-5-((6-((1-(2-hydroxyethyl)-1H-pyrazol-4-yl)amino)-1H-pyrazolo[3,4-d]pyrimidin-1-yl)methyl)phenyl)morpholin-3-one]
18 | ≤ 5.00 | 10-50 Fold | 6.00 to 7.00 | O=C1COCCN1c1cc(F)c(F)c(Cn2ncc3cnc(Nc4cnn(CCO)c4)nc32)c1 [Example 59, 4-(3,4-Difluoro-5-((6-((1-(2-hydroxyethyl)-1H-pyrazol-4-yl)amino)-1H-pyrazolo[3,4-d]pyrimidin-1-yl)methyl)phenyl)morpholin-3-one]
19 | 5.00 to 6.00 | >50 Fold | 5.00 to 6.00 | c1cc(Cn2ncc3cnc(Nc4cnn(CC5CCNC5)c4)nc32)cc(N2CCOCC2)c1 (stereo not drawn) [Example 60, 1-(3-Morpholinobenzyl)-N-(1-(pyrrolidin-3-ylmethyl)-1H-pyrazol-4-yl)-1H-pyrazolo[3,4-d]pyrimidin-6-amine]
20 | 5.00 to 6.00 | >50 Fold | 6.00 to 7.00 | Cn1cc(Nc2ncc3cnn(Cc4c(F)c(F)cc(N5CCOCC5=O)c4F)c3n2)cn1 [Example 61, 4-(2,4,5-Trifluoro-3-((6-((1-methyl-1H-pyrazol-4-yl)amino)-1H-pyrazolo[3,4-d]pyrimidin-1-yl)methyl)phenyl)morpholin-3-one]

From US9040545B2, “Heterocyclyl pyrazolopyrimidine analogues as selective JAK inhibitors” (Cellzome Limited, priority 2010, dated 2015)
